Assay results from PMC3236199, “Development of Derivatives of 3, 3′-Diindolylmethane as Potent Leishmania donovani Bi-Subunit Topoisomerase IB Poisons” (PLoS ONE, 2011).

Assays:
[1] = system: DIM resistant L. donovani axenic amastigotes; test: Cell viability assay, DIM resistant axenic amastigotes; assay type: cell-based; details: Leishmania donovani, 12 h, read-out: growth inhibited
Method: L. donovani strain AG83 and DIM resistant parasite DR50 promastigotes were grown at 22°C in M199 liquid media supplemented with 10% FBS as described. Axenic amastigotes were cultured in modified M199 medium (pH 5.3) supplemented with 10 mM sodium succinate, 40 mM HEPES and 25% FCS and maintained at 37°C with 5% CO2.The effect of drugs on the viability of Leishmania parasites was determined by direct microscopic counting using light microscope (40× objective) in a haemocytometer. The cells at the exponential phase were collected and transferred into 24-well plate (3.5×10^6 cells per well). The cells were then incubated for 12 h in the presence of various concentrations of DIM, DPDIM, DMDIM and DMODIM (1, 5, 10, 20 and 50 µM). For other experiments, 10^4 cells were taken and grown in presence of the respective derivatives for a period of 30 days. For each 5 day interval, a small amount of aliquots were taken out. After incubation the cells were centrifuged and cell pellet was washed with PBS (1×) twice and finally suspended in 1 ml PBS (1×). Fifty µl of aliquot was taken, mixed with 0.4% trypan blue solution and incubated for 3 min at 22°C. One drop of the mixture was transferred to haemocytometer and the clear (live) and blue (dead) cells were counted. The total number of viable cells in aliquot was calculated by multiplying the total number of viable cells by 2 (the dilution factor for trypan blue). […] Percentages of viable cells were calculated using the formula: [drawing 1]
Figure 3 Effectiveness of clearance of internalized L. donovani (AG83) from in vitro infected mouse M [drawing 3] . […] Cells were fixed, stained with Giemsa and counted under bright field microscope. […] Experiments were carried out for three times and representative results are the mean ± S.D. (B) Growth of DIM resistant L. donovani axenic amastigotes were monitored in presence of increasing concentrations (2, 5, 10, 20 and 50 µM) of DIM, DPDIM, DMDIM and DMODIM for 12 h. […] Growth of the parasites treated with the compounds was expressed as percentage of the viable promastigotes compared with that of control. […]

[2] = system: F270L mutant topoisomerase I; test: Equilibrium (duplex oligonucleotide) cleavage assay, F270L mutant; assay type: biochemical, Leishmania donovani; details: 20 µM, with respect to cleavable complex formed without drug with wild type enzyme
Method: Cells were lysed and proteins were purified through Ni^+2-NTA agarose column (Qiagen) followed by phosphocellulose column chromatography (P11 cellulose, Whatman) as described. Finally the purified proteins LdTOP1L, LdTOP1L^F270L and LdTOP1S were stored at −70°C. Purified LdTOP1L and LdTOP1L^F270L were mixed with purified LdTOP1S separately and at a molar ratio of 1∶1 at a total protein concentration of 0.5 mg/ml in reconstitution buffer (50 mM potassium phosphate, pH 7.5, 0.5 mM DTT, 1 mM EDTA, 0.1 mM PMSF, 10% glycerol). The mixtures were dialyzed over night at 4°C and the dialyzed fractions were used for the plasmid relaxation activity.
The 25-mer oligonucleotide 1 (5′-GAAAAAAGACTT↓AGAAAAATTTTTA-3′) was 5′-end labeled with [γ^32P] ATP and annealed with oligonucleotide 2 (5′-[…]-3′) to make a duplex oligonucleotide containing a topoisomerase I binding motif as described. Cleavage assay was carried out using 20-fold molar excess of enzymes over duplex 25-mer DNA (enzymes, 0.2 µM; DNA, 10 nM). The reactions were carried out in standard assay condition in the absence or presence of drugs at 37°C for 30 min. All the reactions were stopped by addition of SDS to a final concentration of 2% (w/v), digested with 5 µl of 1 mg/ml trypsin and analyzed by 12% denaturing polyacrylamide gel followed by autoradiography. The amount of strand cleavage in the presence of drugs was determined by densitometry of the film as described.
The effect of DIM and its derivatives on L. donovani topoisomerase I was examined by plasmid DNA cleavage assay as described. The topoisomerase reaction has three general mechanistic steps: (i) binding of enzyme to the substrate DNA, (ii) single strand breakage and subsequent strand rotation through the break leading to change in linking number, and (iii) strand religation. The second step of reaction is the introduction of a single-stranded nick in the phosphodiester bond of the DNA, through which an intact strand is allowed to pass. […]

Cc1[nH]c2ccccc2c1Cc1c(C)[nH]c2ccccc12 [DMDIM, 2,2′-dimethyl 3,3′-diindolyl methane]
inhibition at 50 µM [1]: 92% | extent of cleavage [2]: ~53%

COc1ccc2[nH]cc(Cc3c[nH]c4ccc(OC)cc34)c2c1 [DMODIM, 5,5′-dimethoxy 3,3′-diindolyl methane]
inhibition at 50 µM [1]: 79% | extent of cleavage [2]: ~50%

c1ccc(-c2[nH]c3ccccc3c2Cc2c(-c3ccccc3)[nH]c3ccccc23)cc1 [DPDIM, 2,2′-diphenyl 3,3′-diindolyl methane]
inhibition at 50 µM [1]: 98% | extent of cleavage [2]: 56%
